The values below are quoted from earlier work in patent US20260125680A1, “COMPOSITIONS AND METHODS FOR IMMUNE CHECKPOINT INHIBITION” (The General Hospital Corporation, priority 2018, published 2026).

In data set [1] the test system is bladder cancer. Conditions: confirmatory trial.
For data set [2], the system named is pancreatic cancer. Conditions: monotherapy.

“atezolizumab: FDA approved PD-L1 inhibitor”: the “primary endpoint of overall survival” value in data set [1] is given as “failed to achieve its primary endpoint”.
For the substance Ipilimumab: anti-CTLA-4, the response result in data set [2] is recorded as “ineffective with no responders”.
